According to PMC11012124, “Synthesis of Novel Triazine-Based Chalcones and 8,9-dihydro-7H-pyrimido[4,5-b][1,4]diazepines as Potential Leads in the Search of Anticancer, Antibacterial and Antifungal Agents” (International Journal of Molecular Sciences, 2024):

Columns and labels:
[1] = system: SK-MEL-28; test: cells; details: Homo sapiens, SK-MEL-28, 48 h
[2] = system: HOP-62; test: cells; details: Homo sapiens, HOP-62, 48 h
[3] = system: MALME-3M; test: cells; details: Homo sapiens, 48 h
[4] = system: UACC-257; test: cells; details: Homo sapiens, UACC-257, 48 h
[5] = system: HS 578T; test: cells; details: Homo sapiens, 48 h
[6] = system: MDA-MB-468; test: cells; details: Homo sapiens, MDA-MB-468, 48 h
[7] = system: KM12; test: cells; details: Homo sapiens, KM12, 48 h
[8] = system: A498; test: cells; details: Homo sapiens, A498, 48 h
[9] = system: HT29; test: cells; details: Homo sapiens, HT-29, 48 h
[10] = system: RXF 393; test: cells; details: Homo sapiens, RXF 393, 48 h
[11] = system: SF-539; test: cells; details: Homo sapiens, SF-539, 48 h
[12] = system: OVCAR-4; test: cells; details: Homo sapiens, OVCAR-4, 48 h
[13] = system: OVCAR-3; test: cells; details: Homo sapiens, OVCAR-3, 48 h
[14] = system: SN12C; test: cells; details: Homo sapiens, 48 h
[15] = system: TK-10; test: cells; details: Homo sapiens, TK-10, 48 h
[16] = system: 786-0; test: cells; details: Homo sapiens, 786-0, 48 h
[17] = system: M14; test: cells; details: Homo sapiens, M14, 48 h
[18] = system: SK-MEL-5; test: cells; details: Homo sapiens, SK-MEL-5, 48 h
[19] = system: SF-268; test: cells; details: Homo sapiens, SF-268, 48 h
[20] = system: CAKI-1; test: cells; details: Homo sapiens, CAKI-1, 48 h
[21] = system: COLO 205; test: cells; details: Homo sapiens, COLO 205, 48 h
[22] = system: NCI-H460; test: cells; details: Homo sapiens, NCI-H460, 48 h
[23] = system: NCI-H322M; test: cells; details: Homo sapiens, 48 h
[24] = Hemolytic activity, spectrophotometric; type: cell-based, human; details: human, human red blood cells (huRBC), 5% hematocrit, 200 μg/mL, 37 °C
[25] = system: OVCAR-8; test: cells; details: Homo sapiens, OVCAR-8, 48 h
[26] = system: SF-295; test: cells; details: Homo sapiens, SF-295, 48 h
[27] = system: CCRF-CEM; test: cells; details: Homo sapiens, 48 h
[28] = system: UACC-62; test: cells; details: Homo sapiens, UACC-62, 48 h
[29] = system: UO-31; test: cells; details: Homo sapiens, UO-31, 48 h
[30] = system: SK-OV-3; test: cells; details: Homo sapiens, SK-OV-3, 48 h
[31] = system: OVCAR-5; test: cells; details: Homo sapiens, OVCAR-5, 48 h
[32] = system: HL-60(TB); test: cells; details: Homo sapiens, HL-60, 48 h
[33] = system: HCC-2998; test: cells; details: Homo sapiens, HCC 2998, 48 h
[34] = system: K-562; test: cells; details: Homo sapiens, K562, 48 h
[35] = system: MCF7; test: cells; details: Homo sapiens, MCF7, 48 h
[36] = system: EKVX; test: cells; details: Homo sapiens, 48 h
[37] = system: HCT-15; test: cells; details: Homo sapiens, HCT-15, 48 h

CN(C)c1nc(NCCNS(=O)(=O)c2ccc(C3=Nc4c(N)nc(N)nc4NC(c4ccc(C(F)(F)F)cc4)C3)cc2)nc(N2CCOCC2)n1 (stereo not shown) [30g]
GI50 [1]: 34.1 µM
CC50 ([1]; read-out: LC50): > 100 µM
GI50 [2]: 50.7 µM
CC50 ([2]; read-out: LC50): > 100 µM
GI50 [3]: 19.9 µM
CC50 ([3]; read-out: LC50): > 100 µM
GI50 [4]: 20.4 µM
CC50 ([4]; read-out: LC50): > 100 µM
GI50 [5]: 19.2 µM
CC50 ([5]; read-out: LC50): > 100 µM
GI50 [6]: 13.7 µM
CC50 ([6]; read-out: LC50): 69.5 µM
GI50 [7]: 37 µM
CC50 ([7]; read-out: LC50): > 100 µM
GI50 [8]: 24.1 µM
CC50 ([8]; read-out: LC50): > 100 µM
GI50 [9]: 19.8 µM
CC50 ([9]; read-out: LC50): > 100 µM
GI50 [10]: 10.3 µM
CC50 ([10]; read-out: LC50): > 100 µM
GI50 [11]: 22.5 µM
CC50 ([11]; read-out: LC50, SF-539, 48 h): > 100 µM
GI50 [12]: 37 µM
CC50 ([12]; read-out: LC50): > 100 µM
GI50 [13]: 53.9 µM
CC50 ([13]; read-out: LC50): > 100 µM
GI50 [14]: 35.7 µM
CC50 ([14]; read-out: LC50): > 100 µM
GI50 [15]: 54.3 µM
CC50 ([15]; read-out: LC50): > 100 µM
GI50 [16]: 20.8 µM
CC50 ([16]; read-out: LC50): > 100 µM
GI50 [17]: 22 µM
CC50 ([17]; read-out: LC50): > 100 µM
GI50 [18]: 15.9 µM
CC50 ([18]; read-out: LC50): 57.1 µM
GI50 [19]: 19.9 µM
CC50 ([19]; read-out: LC50): > 100 µM
GI50 [20]: 25.9 µM
CC50 ([20]; read-out: LC50): > 100 µM
GI50 [21]: 16.5 µM
CC50 ([21]; read-out: LC50): 76.2 µM
GI50 [22]: 36.5 µM
CC50 ([22]; read-out: LC50): > 100 µM
GI50 [23]: 45.4 µM
CC50 ([23]; read-out: LC50): > 100 µM
hemolysis at 24 h, 200 µg/mL [24]: 2.4%
GI50 [25]: 59.5 µM
CC50 ([25]; read-out: LC50): > 100 µM
GI50 [26]: 21.1 µM
CC50 ([26]; read-out: LC50): > 100 µM
GI50 [27]: 25.9 µM
CC50 ([27]; read-out: LC50): > 100 µM
GI50 [28]: 16.4 µM
CC50 ([28]; read-out: LC50): 81.1 µM
GI50 [29]: 100 µM
CC50 ([29]; read-out: LC50): > 100 µM
GI50 [30]: 69.7 µM
CC50 ([30]; read-out: LC50): > 100 µM
GI50 [31]: 27 µM
CC50 ([31]; read-out: LC50): > 100 µM
GI50 [32]: 27.5 µM
CC50 ([32]; read-out: LC50): > 100 µM
GI50 [33]: 20.2 µM
CC50 ([33]; read-out: LC50): > 100 µM
GI50 ([34]; K-562, 48 h): 29.1 µM
CC50 ([34]; read-out: LC50): > 100 µM
GI50 [35]: 18.1 µM
CC50 ([35]; read-out: LC50): > 100 µM
GI50 [36]: 47.2 µM
CC50 ([36]; read-out: LC50): > 100 µM
GI50 [37]: 30.9 µM
CC50 ([37]; read-out: LC50): > 100 µM
